The text below walks through data of patent US9057094B1, “Nanoparticle-mediated methods for antimicrobial susceptibility testing of bacteria” (UNIVERSITY OF CENTRAL FLORIDA RESEARCH FOUNDATION, INC., priority 2007, dated 2015).

Structures are written as SMILES.

Assay [1] deals with E. coli. The assay can be described thus: Dextran-coated gold nanoparticle (Au NP)/Con A surface plasmon band shift assay for MIC. The format is cell-based, Escherichia coli. The conditions noted are these: E. coli 10^6 CFU, 2 hours at 37° C. in MH broth; Au NPs + Con A 30 minutes at 25° C. The procedure: (§1) In order to investigate if the dextran-coated iron oxide nanoparticles can monitor the starch utilization due to bacterial metabolic activity, different populations of Escherichia coli (strain 8739 from ATCC) were grown in starch-containing MH broth (DIFCOTM, BD) for 2 hours at 37° C. For determination of the minimum inhibitory concentration, Escherichia coli (10^6 CFU), Serratia marcescens (ATCC, 106 CFU) and Shigella sonnie (strain 9290 from ATCC, 106CFU) were grown in a starch-containing MH broth (DIFCOTM, BD), for 2 hours at 37° C. in the presence or absence of ampicillin. […]
Accurate determination of the minimum inhibitory concentration (MIC) can prevent adverse side effects, such as renal toxicity. […] Then, aliquots of these samples were incubated with Au NPs for 30 minutes at 25° C., in the presence of Con A. Based on the shifts of the surface plasmon band, the MIC was determined to be 8 μg, as the corresponding surface plasmon band shift was statistically different than the control, containing bacteria growing in the absence of antibiotic (FIG. 8A). […] Bacterial growth was assessed based on the broth's turbidity, whereas absence of turbidity was an indicator of successful antimicrobial susceptibility. […] This concentration was identical to the Au NP-determined MIC, though the Au NP-based method yielded the same results much faster.

Assay [2] relates to E. coli. In words: Turbidity method (24-hour incubation in MH broth) for MIC. The format is cell-based, Escherichia coli. The conditions noted are these: serial dilutions in MH broth, 24-hour incubation at 37° C. The procedure:
Accurate determination of the minimum inhibitory concentration (MIC) can prevent adverse side effects, such as renal toxicity. Considering that the contemporary MIC determination depends on a day-long process, we examined if Au NPs can yield results faster without sacrificing reliability. Initially, E. coli (10^6 CFU) were incubated for 2 hours at 37° C. in MH broth, in the presence of different concentrations of ampicillin. Then, aliquots of these samples were incubated with Au NPs for 30 minutes at 25° C., in the presence of Con A. Based on the shifts of the surface plasmon band, the MIC was determined to be 8 μg, as the corresponding surface plasmon band shift was statistically different than the control, containing bacteria growing in the absence of antibiotic (FIG. 8A). Correlation with standard methods was achieved by inoculating serial dilutions of ampicillin in MH broth with E. coli, followed by a 24-hour long incubation at 37° C. Bacterial growth was assessed based on the broth's turbidity, whereas absence of turbidity was an indicator of successful antimicrobial susceptibility. […] This concentration was identical to the Au NP-determined MIC, though the Au NP-based method yielded the same results much faster.

Assay [3] relates to E. coli. The assay can be described thus: High-throughput Au-NP/Con A assay on 96-well plate. The format is cell-based, Escherichia coli. The conditions noted are these: E. coli 10^6 CFU, Con A 30-min at 25° C. An excerpt:
Finally, the potential of our Au-NP-based assay for the determination of antimicrobial susceptibility in high-throughput format was investigated. In these studies, samples of heat-inactivated E. coli (10^6 CFU) and E. coli (10^6 CFU) grown in the presence or absence of ampicillin were screened with the Au-NP on a 96-well plate using a microtiter plate reader.

The subject of assay [4] is E. coli. The assay can be described thus: Dextran-coated iron oxide nanoparticle (IO NP)/Con A magnetic relaxation (ΔT2) assay for MIC. The format is cell-based, Escherichia coli. The conditions noted are these: E. coli 10^6 CFUs, 2 hours at 37° C. in MH broth; Con A 30-minute incubation at room temperature. Here is the method:
as §1
(§2) First, we wanted to determine if magnetic IO NPs coated with dextran could be used to determine and quantify the levels of a polysaccharide (starch) in bacterial culture media. […] The samples were examined in a Bruker 0.47 T (20 MHz) magnetic relaxometer (The MiniSpec, Bruker), and the individual sample's changes in spin-spin relaxation times (ΔT2) were determined based on the formula: |ΔT2incubation time−ΔT2prior ConA|. […]
Then, utilizing the IO NPs, we determined ampicillin's MIC. […] Specifically, the magnetic-relaxation-determined minimum inhibitory concentration was 8 μg, as at this concentration we observed a drastic change in the values of ΔT2. […]

In a further assay the test system is Shigella sonnei. The assay can be described thus: Dextran-coated IO NP/Con A magnetic relaxation (ΔT2) assay for MIC. The format is cell-based. The conditions noted are these: Shigella sonnei 10^6 CFUs, 2 hours at 37° C. in MH broth; Con A 30-minute incubation at room temperature. Here is the method: as §1, with “ampicillin. For determination of MIC in blood, bacterial stocks (10^6 CFU) were grown in the presence or absence of ampicillin in a 5%-blood-supplemented starch-containing MH broth, for 2 hours at 37° C.” for “ampicillin.”
as §2
(§3) We then determined the antibiotic susceptibility or resistance of other bacteria utilizing the IO NPs. […]

The next assay deals with Serratia marcescens. The assay can be described thus: Dextran-coated IO NP/Con A magnetic relaxation (ΔT2) assay of antibiotic resistance. The format is cell-based. The conditions noted are these: Serratia marcescens 10^6 CFUs, 2 hours at 37° C. in MH broth; Con A 30-minute incubation at room temperature. Here is the method:
as §1, with “ampicillin. For determination of MIC in blood, bacterial stocks (10^6 CFU) were grown in the presence or absence of ampicillin in a 5%-blood-supplemented starch-containing MH broth, for 2 hours at 37° C.” for “ampicillin.”
as §2, §3

Assay [5] deals with E. coli. In words: Dextran-coated polysaccharide nanosensors, antimicrobial susceptibility in blood-supplemented MH broth. The format is cell-based, Escherichia coli. The conditions noted are these: 2 hours at 37° C., 45 minutes following Con A addition at room temperature. The procedure:
as §1, with “ampicillin. For determination of MIC in blood, bacterial stocks (10^6 CFU) were grown in the presence or absence of ampicillin in a 5%-blood-supplemented starch-containing MH broth, for 2 hours at 37° C.” for “ampicillin.”
(§4) Lastly, due to the fact that many bacteria can either cause septicemia or require growth in optically turbid media, it is important to assess bacterial susceptibility in these complex matrices. However, most current methods cannot be utilized for the detection of molecular targets and assessment of antimicrobial susceptibility in blood, due to the strong absorbance and scattering from the matrix's constituents, including platelets and red blood cells. […] After 45 minutes following Con A addition at room temperature, we determined that the E. coli's ampicillin MIC was 8 μg, without observing any nanoparticle precipitation.

The subject of assay [6] is S. marcescens. Described as above. The conditions noted are these: 2 hours at 37° C., hour-long incubation at 25° C. The format is cell-based, Serratia marcescens. The procedure:
as §1, with “ampicillin. For determination of MIC in blood, bacterial stocks (10^6 CFU) were grown in the presence or absence of ampicillin in a 5%-blood-supplemented starch-containing MH broth, for 2 hours at 37° C.” for “ampicillin.”
as §4

The subject of assay [7] is E. coli. The assay can be described thus: Con A-conjugated nanosensors (non-competition assay), blood cultures. The format is cell-based, Escherichia coli. The conditions noted are these: within 5 minutes after addition of bacterial sample. The procedure:
as §1, with “ampicillin. For determination of MIC in blood, bacterial stocks (10^6 CFU) were grown in the presence or absence of ampicillin in a 5%-blood-supplemented starch-containing MH broth, for 2 hours at 37° C.” for “ampicillin.”
(§5) In our first set of experiments with the aminated silica-coated nanoparticles, we determined whether these nanoparticles clustered non-specifically in the presence of Con A in solution. […]
(§6) Then, we examined if MIC determination can be achieved using these Con A-conjugated nanosensors, in blood cultures of E. coli and S. marcescens. […] Likewise, within 5 minutes the Con A-conjugated nanosensors assessed that S. marcescens was resistant to ampicillin, further corroborating the findings that the non-competition assay format provides faster results than the competition-based assay of the dextran-coated nanosensors (FIG. 20B).

Assay [8] concerns S. marcescens. The description is as above. The conditions noted are these: within 5 minutes after addition of bacterial sample. The format is cell-based, Serratia marcescens. The procedure: as §1, with “ampicillin. For determination of MIC in blood, bacterial stocks (10^6 CFU) were grown in the presence or absence of ampicillin in a 5%-blood-supplemented starch-containing MH broth, for 2 hours at 37° C.” for “ampicillin.”
as §5, §6

As to `CC1(C)S[C@@H]2[C@H](NC(=O)[C@H](N)c3ccccc3)C(=O)N2[C@H]1C(=O)O` [ampicillin], in the assay on E. coli [1], the “MIC (minimum inhibitory concentration) based on shifts of the surface plasmon band” value stood at 8 µg. The “Lowest ampicillin concentration where the MH broth was clear (turbidity MIC)” value in the assay on E. coli [2] came to 8 µg. Besides, the “Categorization of sample (inhibitory or non-inhibitory)” value in the assay with E. coli [3] (2 μg ampicillin) is “non-inhibitory”; with E. coli [3] (64 μg ampicillin), “inhibitory”. Also, the “Magnetic-relaxation-determined minimum inhibitory concentration” value with E. coli [4] and in the assay with Shigella sonnei was 8 µg each time. Besides, the “Antibiotic susceptibility or resistance (changes in T2)” value in the assay with Serratia marcescens is reported as “resistant”. In the assay with E. coli [5], the “Ampicillin MIC in blood” value is 8 µg. For the same molecule, the “Drug susceptibility or resistance in blood” value with S. marcescens [6] is “drug resistance”. Also, in the assay on E. coli [7], the “Ampicillin MIC in blood cultures, Con A-conjugated nanosensors” value was determined as 8 µg. Besides, in the assay with S. marcescens [8], the “Drug susceptibility or resistance in blood cultures, Con A-conjugated nanosensors” value is reported as “resistant”.
